Key:
[1] = system: p-AKT in NCI-H358 (KRAS^G12C, PIK3CA^WT) cells; assay: Basal p-AKT assay; format: cell-based, human; conditions: NCI‐H358 (KRAS^G12C, PIK3CA^WT) cell line
[2] = system: p-AKT in NCI-H1993 (KRAS^WT, PIK3CA^WT) cells; assay: Basal p-AKT assay; format: cell-based, human; conditions: NCI‐H1993 (KRAS^WT, PIK3CA^WT) cell line
[3] = system: NCI-H358 (KRAS^G12C); assay: Proliferation assay; format: cell-based, human; conditions: NCI-H358 (Figure S2D)
[4] = system: NCI-H1993 (KRAS^WT); assay: Proliferation assay; format: cell-based, human; conditions: NCI-H1993 (Figure S2D)
[5] = in vitro; format: in vitro ADME; conditions: CD-1, mouse, brain homogenate
[6] = 30 mg/kg
[7] = in vivo; conditions: female, Balbc nude, mouse, 30 mg/kg
[8] = in vitro; conditions: human, Caco-2
[9] = in vitro; conditions: CD-1, mouse, plasma

Row | Structure (SMILES) | effect on p‐AKT level [1] | effect on p‐AKT level [2] | inhibitory effect on cell proliferation [3] | inhibitory effect on cell proliferation [4] | fraction unbound at 5 h, 1 μM [5] | Unbound brain AUC ([6]; AUCbrain × fu,brain) | Unbound plasma AUC ([6]; AUCplasma × fu,plasma) | AUC [7] | Kp uu [7] | Papp A→B at 120 min, 10 μM [8] | fraction unbound at 5 h, 1 μM [9]
1 | C[C@H](Nc1ccc2c(c1)OCCn1cc(N3C(=O)OC[C@H]3C(F)F)nc1-2)C(N)=O [GDC-0077] | reduced | reduced | very weak inhibitory effect | very weak inhibitory effect |  |  |  |  |  |  | 
2 | C=C(F)C(=O)N1CCN(c2nc(OC[C@@H]3CCCN3C)nc3c2CCN(c2cccc4cccc(Cl)c24)C3)C[C@@H]1CC#N [Adagrasib, adagrasib] |  |  |  |  | 0.001 | 0.0009 µM·h | 0.089 µM·h | 44.3 µM·h | 0.01 | 0.8 ×10⁻⁶ cm/s | 0.002
